PubChem BioAssay AID1963833 (Molecular Pharmacology Branch, DTP, NCI, 2024)

Test system: 883617-216-R-J1-PDC complex spheroid viability
Assay: Anticancer human tumor 883617-216-R-J1-PDC patient-derived bladder carcinoma cell line growth inhibition [POLQ]
Conditions: for IC50: curve of first compound; for viability, T/C: stronger effect = lower value
Method: Multicellular complex tumor spheroid response to Polymerase (POL) inhibitors (novobiocin, ART-558, RP6685) in combination with a variety of drugs and investigational agents in selected tumor cell lines
The POL inhibitors (novobiocin, ART-558, and RP6685) were evaluated both individually and in combination with standard of care and investigational anticancer small molecules within a complex spheroid model of solid tumors. . Complex spheroids include a stromal component modeled by human endothelial cells (HUVEC) and fibroblasts modeled by human mesenchymal stem cells (MSCs). The concentration ranges selected for each drug and investigational agent were based upon clinically achievable concentrations if the clinical Cmax of the agent was known.
Compounds. The drugs and investigational agents: novobiocin (NSC847541), ART-558 (NSC835418), RP-6685 (NSC848927), peposertib (NSC802822), ceralasertib (NSC780249), elimusertib (NSC800525), camonsertib (NSC841442), AZD-1390 (NSC803789), olaparib (NSC753686), talazoparib (NSC767125), rucaparib (NSC756644), sotorasib (NSC818433), MRTX-1133 (NSC836407), SN-38 (NSC673596), topotecan (NSC609699), epotoside (NSC141540), doxorubicin (NSC123127), gemcitabine (NSC613327), 5-fluorouracil (NSC19893), paclitaxel (NSC125973), vemurafenib (NSC761431), MSA-2 (NSC828583), SN-011 (NSC837082), adavosertib (NSC754352), prexasertib (NSC758257), carboplatin (NSC241240) and oxaliplatin (NSC266046), were obtained from the National Cancer Institute (NCI) Developmental Therapeutics Program Chemical Repository (21). The FDA-approved anticancer drug set is available from the Developmental Therapeutics Program at https://dtp.cancer.gov/organization/dscb/obtaining/. […] The stock solutions were prepared in dimethyl sulfoxide (DMSO, Sigma-Aldrich, St. Louis, MO, cat. D2650), except for the platinum compounds which were prepared in saline (Quality Biological, Gaithersburg, MD, cat. 114-055-101), at 800-fold the tested concentration and stored at -70 degrees C prior to their use. All drugs and investigational agents were tested over a range starting from a high concentration at or near the clinical Cmax and decreasing in half-log increments. If the clinical Cmax for an agent had not been determined, the highest concentration tested was 10 microM, except for SN-38, which was tested at a high concentration of 1 microM.
Cell Culture. All cells were maintained in an incubator at 37 degrees C and 5% CO2 with 95% humidity. The PDC lines were cultured according to standard operating procedures established by the NCI PDMR (https://pdmr.cancer.gov). Table 3 of the manuscript, lists the cell lines along with the number of the three cell types plated to form the mct-spheroids and media for tumor cell growth. After thawing, all PDC lines, except 997537-175-T-J1-PDC and 415267-285-R-J2-PDC, were cultured in Matrigel-coated flasks prepared with a working solution of 1X Ham's F-12 nutrient mix, without supplementation (Thermo Fisher Scientific, cat. 11765054), 100 U/mL penicillin-streptomycin (Thermo Fisher Scientific, cat. 15140122), and 2.5% Matrigel (Corning Inc., Corning, NY, cat. 354248) for the first three passages. The two PDC lines 997537-175-T-J1-PDC and 415267-285-R-J2-PDC were cultured on uncoated flasks. The 857933-349-R-J2-PDC line was cultured in 6C/Colon 1B media containing advanced DMEM/F-12 (Thermo Fisher Scientific, cat. 12634028), 10 mM HEPES (Thermo Fisher Scientific, cat. 15630080), 1X GlutaMAX supplement (Thermo Fisher Scientific, cat. 35050061), 0.1 mg/mL primocin (InvivoGen, San Diego, CA, cat. ant-pm-2), 10% defined fetal bovine serum, heat inactivated (HyClone Laboratories Inc., Logan, UT, cat. SH30070.03HI), 50% L-WRN conditioned media (ATCC, cat. CRL-3276), 1.25 mM N-Acetyl-L-cysteine (Sigma-Aldrich, cat. A9165), 10 mM nicotinamide (Sigma-Aldrich, cat. N0636), 1X B-27 supplement (Thermo Fisher Scientific, cat. 17504044), 1X N-2 supplement (Thermo Fisher Scientific, cat. […]

[1] = second compound 0.0316 µM, first compound 0.0316 µM
[2] = second compound 0.0316 µM, first compound 0.1 µM
[3] = second compound 0.0316 µM, first compound 0.316 µM
[4] = second compound 0.0316 µM, first compound 1 µM
[5] = second compound 0.0316 µM, first compound 3.16 µM
[6] = second compound 0.0316 µM, first compound 10 µM
[7] = second compound 0.1 µM, first compound 0.0316 µM
[8] = second compound 0.1 µM, first compound 0.1 µM
[9] = second compound 0.1 µM, first compound 0.316 µM
[10] = second compound 0.1 µM, first compound 1 µM
[11] = second compound 0.1 µM, first compound 3.16 µM
[12] = second compound 0.1 µM, first compound 10 µM
[13] = second compound 0.316 µM, first compound 0.0316 µM
[14] = second compound 0.316 µM, first compound 0.1 µM
[15] = second compound 0.316 µM, first compound 0.316 µM
[16] = second compound 0.316 µM, first compound 1 µM
[17] = second compound 0.316 µM, first compound 3.16 µM
[18] = second compound 0.316 µM, first compound 10 µM
[19] = second compound 1 µM, first compound 0.0316 µM
[20] = second compound 1 µM, first compound 0.1 µM
[21] = second compound 1 µM, first compound 0.316 µM
[22] = second compound 1 µM, first compound 1 µM
[23] = second compound 1 µM, first compound 3.16 µM
[24] = second compound 1 µM, first compound 10 µM
[25] = second compound 3.16 µM, first compound 0.0316 µM
[26] = second compound 3.16 µM, first compound 0.1 µM
[27] = second compound 3.16 µM, first compound 0.316 µM
[28] = second compound 3.16 µM, first compound 1 µM
[29] = second compound 3.16 µM, first compound 3.16 µM
[30] = second compound 3.16 µM, first compound 10 µM
[31] = second compound 10 µM, first compound 0.0316 µM
[32] = second compound 10 µM, first compound 0.1 µM
[33] = second compound 10 µM, first compound 0.316 µM
[34] = second compound 10 µM, first compound 1 µM
[35] = second compound 10 µM, first compound 3.16 µM
[36] = second compound 10 µM, first compound 10 µM
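Note: spheroids exposed to compounds for seven days before readout.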
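Throughout, for viability, T/C: 100% = DMSO vehicle control viability.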

COc1cc2cc(C(=O)CCC(=O)O)sc2cc1OC + Nc1ccc(C#CCN(C(=O)Cc2ncc(C(F)(F)F)cc2C(F)(F)F)c2ccc(F)cc2)nn1
IC50 (second compound 0.0316 µM): > 10 µM
IC50 (second compound 0.1 µM): > 10 µM
IC50 (second compound 0.316 µM): > 10 µM
IC50 (second compound 1 µM): > 10 µM
IC50 (second compound 3.16 µM): > 10 µM
IC50 (second compound 10 µM): > 10 µM
viability, T/C [1]: 109%
viability, T/C [2]: 107%
viability, T/C [3]: 123%
viability, T/C [4]: 93.5%
viability, T/C [5]: 105%
viability, T/C [6]: 104%
viability, T/C [7]: 112%
viability, T/C [8]: 90.6%
viability, T/C [9]: 101%
viability, T/C [10]: 95.5%
viability, T/C [11]: 101%
viability, T/C [12]: 107%
viability, T/C [13]: 90.7%
viability, T/C [14]: 101%
viability, T/C [15]: 94.9%
viability, T/C [16]: 100%
viability, T/C [17]: 114%
viability, T/C [18]: 106%
viability, T/C [19]: 97.1%
viability, T/C [20]: 125%
viability, T/C [21]: 108%
viability, T/C [22]: 102%
viability, T/C [23]: 91.5%
viability, T/C [24]: 95.6%
viability, T/C [25]: 114%
viability, T/C [26]: 115%
viability, T/C [27]: 115%
viability, T/C [28]: 83.2%
viability, T/C [29]: 92.5%
viability, T/C [30]: 120%
viability, T/C [31]: 122%
viability, T/C [32]: 128%
viability, T/C [33]: 122%
viability, T/C [34]: 113%
viability, T/C [35]: 155%
viability, T/C [36]: 110%

O=C(Nc1ccc(O)c(NS(=O)(=O)c2ccc(F)cc2)c1)c1ccc(-c2ccccc2)cc1 + Nc1ccc(C#CCN(C(=O)Cc2ncc(C(F)(F)F)cc2C(F)(F)F)c2ccc(F)cc2)nn1
IC50 (second compound 0.0316 µM): > 10 µM
IC50 (second compound 0.1 µM): > 10 µM
IC50 (second compound 0.316 µM): > 10 µM
IC50 (second compound 1 µM): > 10 µM
IC50 (second compound 3.16 µM): > 10 µM
IC50 (second compound 10 µM): > 10 µM
viability, T/C [1]: 91.5%
viability, T/C [2]: 92.5%
viability, T/C [3]: 102%
viability, T/C [4]: 82.8%
viability, T/C [5]: 79.3%
viability, T/C [6]: 71%
viability, T/C [7]: 106%
viability, T/C [8]: 104%
viability, T/C [9]: 90.1%
viability, T/C [10]: 84.1%
viability, T/C [11]: 88.4%
viability, T/C [12]: 70.1%
viability, T/C [13]: 90.4%
viability, T/C [14]: 102%
viability, T/C [15]: 97.6%
viability, T/C [16]: 85.5%
viability, T/C [17]: 81.7%
viability, T/C [18]: 72.5%
viability, T/C [19]: 91.8%
viability, T/C [20]: 95.4%
viability, T/C [21]: 96.3%
viability, T/C [22]: 84.3%
viability, T/C [23]: 87.9%
viability, T/C [24]: 66.1%
viability, T/C [25]: 101%
viability, T/C [26]: 101%
viability, T/C [27]: 104%
viability, T/C [28]: 88.1%
viability, T/C [29]: 86.5%
viability, T/C [30]: 72.2%
viability, T/C [31]: 116%
viability, T/C [32]: 108%
viability, T/C [33]: 115%
viability, T/C [34]: 97.8%
viability, T/C [35]: 117%
viability, T/C [36]: 72.6%
